PubChem BioAssay AID1259407 (Chemical Carcinogenesis Research Information System (CCRIS), 2018)
Entries after “also recorded” stand apart in the source; their conditions may differ. Activity calls are given as the source filed them. How the calls were made is not given here.

Tested on: CCRIS mutagenicity, Ames/micronucleus/aberration tests
Assay: CCRIS mutagenicity studies
[1] = Test System: AMES SALMONELLA TYPHIMURIUM, Strain/Indicator: TA98, Metabolic Activation: NONE, Method: PREINCUBATION
[2] = Test System: AMES SALMONELLA TYPHIMURIUM, Strain/Indicator: TA98, Metabolic Activation: RAT, LIVER, S-9, AROCLOR 1254, Method: PREINCUBATION
[3] = Test System: AMES SALMONELLA TYPHIMURIUM, Strain/Indicator: TA100, Metabolic Activation: NONE, Method: PREINCUBATION
[4] = Test System: AMES SALMONELLA TYPHIMURIUM, Strain/Indicator: TA100, Metabolic Activation: RAT, LIVER, S-9, AROCLOR 1254, Method: PREINCUBATION
[5] = Test System: AMES SALMONELLA TYPHIMURIUM, Strain/Indicator: TA1535, Metabolic Activation: HAMSTER, LIVER, S-9, AROCLOR 1254, Method: STANDARD PLATE
[6] = Test System: AMES SALMONELLA TYPHIMURIUM, Strain/Indicator: TA1535, Metabolic Activation: NONE, Method: STANDARD PLATE
[7] = Test System: AMES SALMONELLA TYPHIMURIUM, Strain/Indicator: TA97A, Metabolic Activation: NONE, Method: STANDARD PLATE
[8] = Test System: AMES SALMONELLA TYPHIMURIUM, Strain/Indicator: TA98, Metabolic Activation: NONE, Method: STANDARD PLATE
[9] = Test System: AMES SALMONELLA TYPHIMURIUM, Strain/Indicator: TA100, Metabolic Activation: NONE, Method: STANDARD PLATE

CC1C=CC(=O)O1 (stereo not given)
mutagenic call [1]: inactive; negative | mutagenic call [2]: inactive; negative | mutagenic call [3]: inactive; negative | mutagenic call [4]: inactive; negative | mutagenic call (Test System: AMES SALMONELLA TYPHIMURIUM, Strain/Indicator: TA102, Metabolic Activation: NONE, Method: PREINCUBATION): inactive; negative | mutagenic call (Test System: AMES SALMONELLA TYPHIMURIUM, Strain/Indicator: TA102, Metabolic Activation: RAT, LIVER, S-9, AROCLOR 1254, Method: PREINCUBATION): inactive; negative

CSc1nc2cc(Oc3cccc(Cl)c3Cl)c(Cl)cc2[nH]1
mutagenic call (End Point: IN VITRO CHROMOSOMAL ABERRATIONS, Test System: RIVER BUFFALO LYMPHOCYTES, Metabolic Activation: NONE): active; positive (structural and ploidy changes) | mutagenic call (End Point: IN VITRO MICRONUCLEUS, Test System: RIVER BUFFALO LYMPHOCYTES, Metabolic Activation: NONE): active; positive

CNC(C)Cc1ccc2c(c1)OCO2 (stereo not given)
mutagenic call (End Point: In vitro micronucleus, Test System: Chinese hamster lung fibroblast, Metabolic Activation: Hamster, Liver, S-9, Phenobarbital sodium and 5,6-benzoflavone): inactive; negative. n-nitroso-3,4-methylenedioxymethamphetamine (500-900 ug/ml), expected | mutagenic call (End Point: In vitro micronucleus, Test System: Chinese hamster lung fibroblast, Metabolic Activation: None): inactive; negative. n-nitroso-3,4-methylenedioxymethamphetamine (200-600 ug/ml), expected; also recorded: inactive; negative. n-nitroso-3,4-methylenedioxymethamphetamine (50-300 ug/ml), expected t | mutagenic call (End Point: In vitro micronucleus, Test System: Chinese hamster lung fibroblast, Metabolic Activation: Rat, Liver, S-9, Phenobarbital sodium and 5,6-benzoflavone): inactive; negative. n-nitroso-3,4-methylenedioxymethamphetamine (500-900 ug/ml), expected

COc1cccc(CN(C)N=O)c1
mutagenic call [5]: active; positive | mutagenic call [6]: inactive; negative

CC(C)Cc1ccc(C(C)C(=O)O)cc1 (stereo not given)
mutagenic call [7]: inactive; negative | mutagenic call (Test System: AMES SALMONELLA TYPHIMURIUM, Strain/Indicator: TA97A, Metabolic Activation: RAT, LIVER, S-9, PHENOBARBITAL, Method: STANDARD PLATE): inactive; negative | mutagenic call (Test System: AMES SALMONELLA TYPHIMURIUM, Strain/Indicator: TA98, Metabolic Activation: HAMSTER, LIVER, S-9, AROCLOR 1254, Method: STANDARD PLATE): inactive; negative | mutagenic call (Test System: AMES SALMONELLA TYPHIMURIUM, Strain/Indicator: TA98, Metabolic Activation: MOUSE, LIVER, S-9, AROCLOR 1254, Method: STANDARD PLATE): inactive; negative | mutagenic call [8]: inactive; negative | mutagenic call (Test System: AMES SALMONELLA TYPHIMURIUM, Strain/Indicator: TA98, Metabolic Activation: RAT, LIVER, S-9, AROCLOR 1254, Method: STANDARD PLATE): inactive; negative | mutagenic call (Test System: AMES SALMONELLA TYPHIMURIUM, Strain/Indicator: TA100, Metabolic Activation: HAMSTER, LIVER, S-9, AROCLOR 1254, Method: STANDARD PLATE): inactive; negative | mutagenic call (Test System: AMES SALMONELLA TYPHIMURIUM, Strain/Indicator: TA100, Metabolic Activation: MOUSE, LIVER, S-9, AROCLOR 1254, Method: STANDARD PLATE): inactive; negative | mutagenic call [9]: inactive; negative | mutagenic call (Test System: AMES SALMONELLA TYPHIMURIUM, Strain/Indicator: TA100, Metabolic Activation: RAT, LIVER, S-9, AROCLOR 1254, Method: STANDARD PLATE): inactive; negative | mutagenic call (Test System: AMES SALMONELLA TYPHIMURIUM, Strain/Indicator: TA100, Metabolic Activation: RAT, LIVER, S-9, PHENOBARBITAL, Method: STANDARD PLATE): inactive; negative | mutagenic call (Test System: AMES SALMONELLA TYPHIMURIUM, Strain/Indicator: TA102, Metabolic Activation: NONE, Method: STANDARD PLATE): inactive; negative | mutagenic call (Test System: AMES SALMONELLA TYPHIMURIUM, Strain/Indicator: TA102, Metabolic Activation: RAT, LIVER, S-9, PHENOBARBITAL, Method: STANDARD PLATE): inactive; negative | mutagenic call [5]: inactive; negative | mutagenic call (Test System: AMES SALMONELLA TYPHIMURIUM, Strain/Indicator: TA1535, Metabolic Activation: MOUSE, LIVER, S-9, AROCLOR 1254, Method: STANDARD PLATE): inactive; negative | mutagenic call [6]: inactive; negative | mutagenic call (Test System: AMES SALMONELLA TYPHIMURIUM, Strain/Indicator: TA1535, Metabolic Activation: RAT, LIVER, S-9, AROCLOR 1254, Method: STANDARD PLATE): inactive; negative | mutagenic call (Test System: AMES SALMONELLA TYPHIMURIUM, Strain/Indicator: TA1537, Metabolic Activation: HAMSTER, LIVER, S-9, AROCLOR 1254, Method: STANDARD PLATE): inactive; negative | mutagenic call (Test System: AMES SALMONELLA TYPHIMURIUM, Strain/Indicator: TA1537, Metabolic Activation: MOUSE, LIVER, S-9, AROCLOR 1254, Method: STANDARD PLATE): inactive; negative | mutagenic call (Test System: AMES SALMONELLA TYPHIMURIUM, Strain/Indicator: TA1537, Metabolic Activation: NONE, Method: STANDARD PLATE): inactive; negative | mutagenic call (Test System: AMES SALMONELLA TYPHIMURIUM, Strain/Indicator: TA1537, Metabolic Activation: RAT, LIVER, S-9, AROCLOR 1254, Method: STANDARD PLATE): inactive; negative | mutagenic call (Test System: AMES SALMONELLA TYPHIMURIUM, Strain/Indicator: TA1538, Metabolic Activation: HAMSTER, LIVER, S-9, AROCLOR 1254, Method: STANDARD PLATE): inactive; negative | mutagenic call (Test System: AMES SALMONELLA TYPHIMURIUM, Strain/Indicator: TA1538, Metabolic Activation: MOUSE, LIVER, S-9, AROCLOR 1254, Method: STANDARD PLATE): inactive; negative | mutagenic call (Test System: AMES SALMONELLA TYPHIMURIUM, Strain/Indicator: TA1538, Metabolic Activation: NONE, Method: STANDARD PLATE): inactive; negative | mutagenic call (Test System: AMES SALMONELLA TYPHIMURIUM, Strain/Indicator: TA1538, Metabolic Activation: RAT, LIVER, S-9, AROCLOR 1254, Method: STANDARD PLATE): inactive; negative

CC(=O)Nc1ccc(S(=O)(=O)Nc2ccccn2)cc1
mutagenic call [1]: inactive; negative | mutagenic call [2]: inactive; negative | mutagenic call [3]: inactive; negative | mutagenic call [4]: inactive; negative

CNC(=O)/C=C(\C)OP(=O)(OC)OC
mutagenic call (End Point: In vitro chromosomal aberrations, Test System: Human lymphocytes, Metabolic Activation: None): active; positive (structural changes and ploidy) | mutagenic call [7]: inactive; negative | mutagenic call (Test System: AMES SALMONELLA TYPHIMURIUM, Strain/Indicator: TA97A, Metabolic Activation: PLANT, HOMOGENATE, S-14, Method: STANDARD PLATE): inactive; negative | mutagenic call (Test System: AMES SALMONELLA TYPHIMURIUM, Strain/Indicator: TA97A, Metabolic Activation: S-9, Method: STANDARD PLATE): inactive; negative | mutagenic call [8]: inactive; negative | mutagenic call (Test System: AMES SALMONELLA TYPHIMURIUM, Strain/Indicator: TA98, Metabolic Activation: PLANT, HOMOGENATE, S-14, Method: STANDARD PLATE): inactive; negative | mutagenic call (Test System: AMES SALMONELLA TYPHIMURIUM, Strain/Indicator: TA98, Metabolic Activation: S-9, Method: STANDARD PLATE): inactive; negative | mutagenic call [9]: inactive; negative | mutagenic call (Test System: AMES SALMONELLA TYPHIMURIUM, Strain/Indicator: TA100, Metabolic Activation: PLANT, HOMOGENATE, S-14, Method: STANDARD PLATE): inactive; negative | mutagenic call (Test System: AMES SALMONELLA TYPHIMURIUM, Strain/Indicator: TA100, Metabolic Activation: S-9, Method: STANDARD PLATE): inactive; negative | mutagenic call (Test System: AMES SALMONELLA TYPHIMURIUM, Strain/Indicator: TA1535, Metabolic Activation: PLANT, HOMOGENATE, S-14, Method: STANDARD PLATE): inactive; negative | mutagenic call (Test System: AMES SALMONELLA TYPHIMURIUM, Strain/Indicator: TA1535, Metabolic Activation: S-9, Method: STANDARD PLATE): inactive; negative | mutagenic call (Test System: UDS HUMAN FIBROBLASTS, Strain/Indicator: THY INCORP (NON-S-PHASE), Metabolic Activation: NONE, Method: LIQUID SCINTILLATION COUNTING): active; positive
